Measurements as given in patent US10869933B2, “Oligomer-phenothiazine conjugates” (Nektar Therapeutics, priority 2009, dated 2020).
Read-outs that look alike come from different tables or passages of the source.

Experiments:
[1] = target: T1, recombinant human H2 histamine receptor (Homo sapiens, UniProt P25021); experiment: Histamine H2 receptor radioligand binding; conditions: [125I]-Aminopotentidine 0.1 nM, human rCHO-K1 cell membranes; up to 30 μM
T1 construct: expressed in transfected cells; host or cells: CHO cells (membranes)
Description: (§1) The radioligands used are specific for each receptor subtype and the assay conditions are described in Table 2. […] Ki is obtained using the Cheng Prusoff correction using experimental Kd vales that are determined under these assay conditions.

[2] = Log P determination (Sirius GLpKa); format: physicochemical; conditions: Partition Log P, average of three measurements
Description: (§2) A blank standardization has to be completed first and passed in order to conduct the compound experiments. The solutions used by the instrument for the blank titration include water, a pH solution, and a surfactant (TRITON X-100). The TRITON X-100 was purchased commercially from Sirus. The 0.5% solution of TRITON X-100 was used in the experiment. In a 1 L volumetric flask 5 mls of TRITON X-100 is added and MILLI Q water to volume. The vessels used by the instrument were filled to ⅓ of their volume with each solution. Therefore the assay tray contains one vessel for water, pH solution, and surfactant for the blank run. The temperature of the water bath for the instrument is 25° C. The blank is calculated as an average of three “good” experiments. The “good” was denoted by a green check mark next to the assay number in the computer software. Once the blank was run successfully the instrument was ready to conduct the experiments.
An additional method has to be set up for the Log P determinations for each compound. […] The vessels are placed in the assay tray of the instrument. The experimental parameters are entered into the computer. These included sample weight, molecular weight, assay type (Partition Log P), number of assays (three), and pKa value of the parent drug from the previous experiment. The run was started. There are three measurements for each run that are averaged to obtain the final results from the data points collected in the calculation software. All runs were denoted as “good” by the green check mark next to the assay number.

[3] = target: T2, recombinant human M5 muscarinic acetylcholine receptor (Homo sapiens, UniProt P08912); experiment: Muscarinic M5 receptor radioligand binding; conditions: 3H-N-Methylscopolamine 0.8 nM, CHO cell membranes
T2 construct: expressed in transfected cells; host or cells: CHO cells (membranes)
T2 sequence (P08912 1-532): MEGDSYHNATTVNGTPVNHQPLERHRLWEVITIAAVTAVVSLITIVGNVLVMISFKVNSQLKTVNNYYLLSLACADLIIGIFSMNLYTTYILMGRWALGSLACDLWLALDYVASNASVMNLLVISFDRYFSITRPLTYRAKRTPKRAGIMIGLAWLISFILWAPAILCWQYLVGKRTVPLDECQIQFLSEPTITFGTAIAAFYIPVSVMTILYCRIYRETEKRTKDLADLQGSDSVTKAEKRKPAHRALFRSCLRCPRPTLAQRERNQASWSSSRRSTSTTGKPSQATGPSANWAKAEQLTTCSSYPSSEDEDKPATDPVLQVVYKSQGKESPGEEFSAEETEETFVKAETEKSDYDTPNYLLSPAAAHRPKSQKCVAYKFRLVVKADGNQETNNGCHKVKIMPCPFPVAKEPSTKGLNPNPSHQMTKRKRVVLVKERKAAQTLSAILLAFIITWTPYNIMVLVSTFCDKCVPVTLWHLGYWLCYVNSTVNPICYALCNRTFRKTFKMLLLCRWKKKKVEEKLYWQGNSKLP

[4] = target: T3, recombinant human M4 muscarinic acetylcholine receptor (Homo sapiens, UniProt P08173); experiment: Muscarinic M4 receptor radioligand binding; conditions: 3H-N-Methylscopolamine 0.8 nM, CHO cell membranes
T3 construct: expressed in transfected cells; host or cells: CHO cells (membranes)
T3 sequence (P08173 1-479): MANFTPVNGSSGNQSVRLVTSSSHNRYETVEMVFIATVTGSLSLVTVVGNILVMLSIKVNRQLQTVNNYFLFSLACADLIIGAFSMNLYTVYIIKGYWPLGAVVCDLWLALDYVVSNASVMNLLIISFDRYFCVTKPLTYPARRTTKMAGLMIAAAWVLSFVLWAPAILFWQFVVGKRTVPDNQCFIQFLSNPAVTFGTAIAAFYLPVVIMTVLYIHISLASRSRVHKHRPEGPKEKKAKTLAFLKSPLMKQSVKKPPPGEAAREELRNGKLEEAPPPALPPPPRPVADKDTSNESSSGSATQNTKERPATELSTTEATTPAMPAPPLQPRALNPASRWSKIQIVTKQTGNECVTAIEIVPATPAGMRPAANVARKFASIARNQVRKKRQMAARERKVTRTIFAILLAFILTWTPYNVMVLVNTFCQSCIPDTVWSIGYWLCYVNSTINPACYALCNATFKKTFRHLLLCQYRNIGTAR

[5] = pKa determination (Sirius GLpKa); format: physicochemical
Description: as §2
The pKa had to be determined first in order to calculate the Log P. The ΔPI is used to determine the pKa needed for the Log P experiment followed by the conjugates. Promethazine was first weighed into a vessel. […] The same procedure was followed for each PEG-Promethazine conjugate n=3-9. The vessels were placed in the assay tray of the instrument. A method had to be set up for the pKa run. The experimental parameters are entered into the computer software. These included sample weight, molecular weight, assay type (aqueous pKa), number of assays (three), and titration range (generally 3.5-12). The run was started. There are three measurements for each run that are averaged to obtain the final results from the data points collected in the calculation software. All runs were denoted as “good” by the green check mark next to the assay number.

[6] = target: T4, recombinant human H3 histamine receptor (Homo sapiens, UniProt Q9Y5N1); experiment: Histamine H3 receptor radioligand binding; conditions: [3H]R(−)-α-Methylhistamine 3 nM, human rCHO-K1 cell membranes; up to 30 μM
T4 construct: expressed in transfected cells; host or cells: CHO cells (membranes)
Description: as §1

[7] = target: T5, recombinant human M2 muscarinic acetylcholine receptor (Homo sapiens, UniProt P08172); experiment: Muscarinic M2 receptor radioligand binding; conditions: 3H-N-Methylscopolamine 0.8 nM, CHO cell membranes
T5 construct: expressed in transfected cells; host or cells: CHO cells (membranes)
T5 sequence (P08172 1-466): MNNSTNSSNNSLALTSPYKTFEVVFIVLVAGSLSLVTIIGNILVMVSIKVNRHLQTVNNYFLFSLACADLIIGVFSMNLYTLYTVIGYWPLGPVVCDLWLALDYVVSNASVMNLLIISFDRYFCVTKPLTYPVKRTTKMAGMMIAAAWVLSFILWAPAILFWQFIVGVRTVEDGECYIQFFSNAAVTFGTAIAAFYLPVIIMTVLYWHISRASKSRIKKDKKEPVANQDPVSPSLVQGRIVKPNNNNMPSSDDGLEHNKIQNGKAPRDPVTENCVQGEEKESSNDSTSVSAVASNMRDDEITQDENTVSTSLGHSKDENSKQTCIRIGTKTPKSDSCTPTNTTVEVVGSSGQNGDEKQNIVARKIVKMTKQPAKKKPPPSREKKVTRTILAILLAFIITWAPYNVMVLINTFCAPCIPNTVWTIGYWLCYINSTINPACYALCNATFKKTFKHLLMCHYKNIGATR

[8] = target: T6, recombinant human H4 histamine receptor (Homo sapiens, UniProt Q9H3N8); experiment: Histamine H4 receptor radioligand binding; conditions: [3H]Histamine 8.2 nM, human rCHO-K1 cell membranes; up to 30 μM
T6 construct: expressed in transfected cells; host or cells: CHO cells (membranes)
Description: as §1

[9] = target: T7, recombinant human H1 histamine receptor (Homo sapiens, UniProt P35367); experiment: Histamine H1 receptor radioligand binding; conditions: for Ki: [3H]-Pyrilamine 1.2 nM, human rCHO cell membranes; for Fold change in binding affinity at H1: relative to Promethazine
T7 construct: expressed in transfected cells; host or cells: CHO cells (membranes)
Description: as §1

[10] = Brain:plasma ratio; format: in vivo; conditions: rat, brain and plasma, iv; rats, 5 mg/kg intravenously, one hour after injection; brain (ng/g) / plasma (ng/mL)
Description: An hour following injection, the animals were sacrificed and plasma and brain were collected and frozen immediately. Following tissue and plasma extractions, concentrations of the compounds in brain and plasma were measured using LC-MS/MS. The brain:plasma ratio was calculated as the ratio of measured concentrations in the brain(ng/g) and plasma (ng/mL).

[11] = test system: CD-1 male mice (visceral pain); experiment: Analgesic assay: acetic acid writhing; format: in vivo; conditions: Dose 10 mg/kg, single pretreatment 30 min before IP 0.5% acetic acid; contractions counted 0-20 min
Description: An analgesic assay was used to determine whether a given compound can reduce and/or prevent visceral pain in mice.
Mice were treated according to standard protocols.
Contractions were counted between 0 and 20 minutes after the injection. The animals were used once.

[12] = aqueous solution, read-out: pKa

T4 sequence (Q9Y5N1 whole entry): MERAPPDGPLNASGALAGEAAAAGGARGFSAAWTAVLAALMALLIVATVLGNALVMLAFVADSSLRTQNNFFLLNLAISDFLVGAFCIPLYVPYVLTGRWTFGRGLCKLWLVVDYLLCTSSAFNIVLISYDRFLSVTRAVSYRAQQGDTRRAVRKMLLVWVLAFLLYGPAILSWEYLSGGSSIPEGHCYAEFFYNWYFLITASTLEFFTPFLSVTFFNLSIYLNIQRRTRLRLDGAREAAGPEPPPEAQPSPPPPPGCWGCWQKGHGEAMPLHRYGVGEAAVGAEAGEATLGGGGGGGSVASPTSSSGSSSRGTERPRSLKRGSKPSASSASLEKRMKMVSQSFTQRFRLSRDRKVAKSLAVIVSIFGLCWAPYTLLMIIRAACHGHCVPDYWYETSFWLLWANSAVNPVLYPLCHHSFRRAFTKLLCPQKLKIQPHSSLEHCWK
T1 sequence (P25021 whole entry): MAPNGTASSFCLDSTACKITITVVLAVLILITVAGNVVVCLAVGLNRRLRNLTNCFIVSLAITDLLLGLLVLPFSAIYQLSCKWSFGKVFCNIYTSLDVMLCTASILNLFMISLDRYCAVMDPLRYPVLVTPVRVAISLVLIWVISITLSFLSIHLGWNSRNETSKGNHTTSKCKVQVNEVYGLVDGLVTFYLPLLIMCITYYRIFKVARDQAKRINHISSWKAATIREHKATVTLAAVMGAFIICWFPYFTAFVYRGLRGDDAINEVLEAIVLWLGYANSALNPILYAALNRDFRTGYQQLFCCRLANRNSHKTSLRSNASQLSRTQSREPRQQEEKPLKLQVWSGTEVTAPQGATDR
T7 sequence (P35367 whole entry): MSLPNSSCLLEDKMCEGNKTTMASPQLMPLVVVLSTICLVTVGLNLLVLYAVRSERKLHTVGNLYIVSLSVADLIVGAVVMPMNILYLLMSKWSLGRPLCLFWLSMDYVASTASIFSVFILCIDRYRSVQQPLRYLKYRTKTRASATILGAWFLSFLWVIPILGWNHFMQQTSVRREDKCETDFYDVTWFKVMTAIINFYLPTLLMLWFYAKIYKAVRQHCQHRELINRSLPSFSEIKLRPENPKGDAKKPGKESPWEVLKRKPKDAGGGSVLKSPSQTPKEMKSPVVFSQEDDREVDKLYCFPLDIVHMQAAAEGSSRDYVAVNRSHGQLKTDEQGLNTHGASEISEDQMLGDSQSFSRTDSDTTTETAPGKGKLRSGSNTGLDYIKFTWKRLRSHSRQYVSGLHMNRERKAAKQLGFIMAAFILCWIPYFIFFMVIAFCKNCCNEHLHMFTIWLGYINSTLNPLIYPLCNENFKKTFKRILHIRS

Row | Compound | Ki [1] [nM] | logP ([2]; read-out: LogP) | Ki [3] [nM] | pKa [5, 12] | Ki [6] [nM] | Ki [7] [nM] | Ki [8] [nM] | Ki [9] [nM] | Fold change in binding affinity at H1 [9] | Kp at 1 h [10] | logP [2] | pKa ([5]; aqueous pKa, 25° C., average of three measurements) | Ki [4] [nM] | Acetic Acid Writhing Mean (% Morphine) [11] [% Morphine]
1 | CC(CN1c2ccccc2Sc2ccccc21)N(C)C (stereo not shown) [Promethazine, reference compound] | > 30000 | 3.43 | 9.34 | 8.99 | > 30000 | 26.4 | > 30000 |  |  |  |  |  | 7.74 | 
2 | COCCOCCOCCN(C)C(C)CN1c2ccccc2Sc2ccccc21 (stereo not shown) [mPEG3-N-Promethazine, mPEG3-N-promethazine] | > 30000 | 3.65 |  | 8.4 | > 30000 |  | > 30000 | 2.28 | 8.20 |  |  |  |  | 
3 | COCCOCCOCCOCc1ccc2c(c1)Sc1ccccc1N2CC(C)N(C)C (stereo not shown) [mPEG3-O-Promethazine, mPEG3-O-promethazine] | > 30000 |  |  |  | > 30000 |  | > 30000 | 7.62 | 27.41 |  |  |  |  | 
4 | COCCOCCOCCOCCN(C)C(C)CN1c2ccccc2Sc2ccccc21 (stereo not shown) [mPEG4-N-Promethazine, mPEG4-N-promethazine] | > 30000 | 3.51 |  | 8.45 | > 30000 |  | > 30000 | 1.95 | 7.01 | 1.86 |  |  |  | 
5 | COCCOCCOCCOCCOCCN(C)C(C)CN1c2ccccc2Sc2ccccc21 (stereo not shown) [mPEG5-N-Promethazine, mPEG5-N-promethazine] | > 30000 | 3.6 |  | 8.67 | > 30000 | 817 | > 30000 | 8.53 | 30.68 | 0.243 |  |  |  | 
6 | COCCOCCOCCOCCOCCOCCOCCOCCOCCOCc1ccc2c(c1)Sc1ccccc1N2CC(C)N(C)C (stereo not shown) [mPEG9-O-Promethazine, mPEG9-O-promethazine] | > 30000 |  |  |  | > 30000 |  | > 30000 | 45.1 | 162.23 |  |  |  |  | 
7 | mPEG8-N-Promethazine |  |  |  |  |  |  |  |  |  |  | 2.648 | 8.238 |  | 
8 | mPEG9-N-promethazine | > 30000 |  |  |  | > 30000 | 308 |  |  |  |  |  |  |  | −59.69

The next lines start with results.

Row | Ki [1] [nM] | logP ([2]; read-out: LogP) | Ki [3] [nM] | pKa [5, 12] | Ki [6] [nM] | Ki [7] [nM] | Ki [8] [nM] | Ki [9] [nM] | Fold change in binding affinity at H1 [9] | Kp at 1 h [10] | logP [2] | pKa ([5]; aqueous pKa, 25° C., average of three measurements) | Compound | Ki [4] [nM] | Acetic Acid Writhing Mean (% Morphine) [11] [% Morphine]
9 | > 30000 |  |  |  | > 30000 |  | > 30000 | 7.16 | 25.76 |  |  |  | COCCOCCOCCOCCOCCOCc1ccc2c(c1)Sc1ccccc1N2CC(C)N(C)C (stereo not shown) [mPEG5-O-Promethazine, mPEG5-O-promethazine] |  | 
10 | > 30000 | 3.25 | 1740 | 8.53 | > 30000 | 337 | > 30000 | 13.2 | 47.48 | 0.098 |  |  | COCCOCCOCCOCCOCCOCCN(C)C(C)CN1c2ccccc2Sc2ccccc21 (stereo not shown) [mPEG6-N-Promethazine, mPEG6-N-promethazine] |  | 
11 | > 30000 | 3 | 905 | 8.49 | > 30000 | 90 | > 30000 | 16.9 | 60.79 | 0.112 |  |  | COCCOCCOCCOCCOCCOCCOCCN(C)C(C)CN1c2ccccc2Sc2ccccc21 (stereo not shown) [mPEG7-N-Promethazine, mPEG7-N-promethazine] | 435 | 
12 | > 30000 |  |  |  | > 30000 |  | > 30000 | 33.2 | 119.42 |  |  |  | COCCOCCOCCOCCOCCOCCOCCOCc1ccc2c(c1)Sc1ccccc1N2CC(C)N(C)C (stereo not shown) [mPEG7-O-Promethazine, mPEG7-O-promethazine] |  | 
